Tests used:
Assay in all cases: IA-DTB cysteine engagement
Assay type in all cases: binding
KRTCAP3_C197 = target: T1, KRTCAP3_C197 (Homo sapiens, UniProt Q53RY4); conditions: 22Rv1 cells, 20 μM probe, 1 h, relative to DMSO
T1 construct: endogenous in cells; host or cells: 22Rv1
T1 sequence (Q53RY4 1-240): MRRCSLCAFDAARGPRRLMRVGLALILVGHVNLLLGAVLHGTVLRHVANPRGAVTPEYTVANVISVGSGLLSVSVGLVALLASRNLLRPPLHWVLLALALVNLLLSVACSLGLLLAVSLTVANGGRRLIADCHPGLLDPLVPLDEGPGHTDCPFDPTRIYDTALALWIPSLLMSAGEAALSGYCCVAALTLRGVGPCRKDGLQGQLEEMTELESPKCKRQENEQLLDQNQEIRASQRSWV
Procedure, shortened: (§1)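 Probe-exposed cells were lysed, IA-DTB-labeled, trypsinized and streptavidin-enriched. Multiplexed TMT quantitation gave engagement ratios versus DMSO, with non-tryptic peptides excluded and intensities normalized to median summed signal.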

C3orf33_C275 = target: T2, C3orf33_C275 (Homo sapiens, UniProt Q6P1S2); conditions: 22Rv1 cells, 20 μM probe, 1 h, relative to DMSO
T2 construct: endogenous in cells; host or cells: 22Rv1
T2 sequence (Q6P1S2 1-294): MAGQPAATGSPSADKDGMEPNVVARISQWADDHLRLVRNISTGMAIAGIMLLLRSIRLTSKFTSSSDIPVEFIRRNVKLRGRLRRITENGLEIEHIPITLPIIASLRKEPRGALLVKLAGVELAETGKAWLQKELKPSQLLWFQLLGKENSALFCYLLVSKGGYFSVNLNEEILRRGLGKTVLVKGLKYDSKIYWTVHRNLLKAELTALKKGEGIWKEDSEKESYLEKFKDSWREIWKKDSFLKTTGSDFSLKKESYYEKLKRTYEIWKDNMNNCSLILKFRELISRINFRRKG
Procedure, shortened: as §1

CDKAL1_C556 = target: T3, CDKAL1_C556 (Homo sapiens, UniProt Q5VV42); conditions: 22Rv1 cells, relative to DMSO; for % engagement CDKAL1_C556: 20 μM probe, 1 h; for % engagement CDKAL1_556: 5 μM probe, 1 h (FIG. 5B)
T3 construct: endogenous in cells; host or cells: 22Rv1
T3 sequence (Q5VV42 1-579): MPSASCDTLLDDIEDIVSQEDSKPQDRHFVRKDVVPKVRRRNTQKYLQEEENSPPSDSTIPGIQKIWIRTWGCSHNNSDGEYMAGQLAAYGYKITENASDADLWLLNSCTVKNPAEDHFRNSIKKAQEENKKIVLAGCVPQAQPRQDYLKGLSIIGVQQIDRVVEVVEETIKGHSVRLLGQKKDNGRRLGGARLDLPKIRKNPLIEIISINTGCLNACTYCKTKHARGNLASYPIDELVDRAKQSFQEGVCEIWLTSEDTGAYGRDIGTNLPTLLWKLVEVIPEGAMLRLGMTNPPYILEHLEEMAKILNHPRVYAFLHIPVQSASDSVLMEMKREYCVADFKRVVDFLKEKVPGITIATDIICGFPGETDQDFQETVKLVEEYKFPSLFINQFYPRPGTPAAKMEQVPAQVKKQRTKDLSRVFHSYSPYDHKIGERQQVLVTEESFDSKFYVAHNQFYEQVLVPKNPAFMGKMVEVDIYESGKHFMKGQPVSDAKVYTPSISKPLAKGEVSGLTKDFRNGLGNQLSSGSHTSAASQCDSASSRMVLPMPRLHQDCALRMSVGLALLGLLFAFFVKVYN
Procedure, shortened: as §1

| SMILES | % engagement KRTCAP3_C197 (KRTCAP3_C197) [%] | % engagement C3orf33_C275 (C3orf33_C275) [%] | % engagement CDKAL1_C556 (CDKAL1_C556) [%] | % engagement CDKAL1_556 (CDKAL1_C556) [%] |
| --- | --- | --- | --- | --- |
| C=CC(=O)N1C[C@H](c2ccc(Br)cc2)[C@H]1C(=O)Nc1cccc2cccnc12 [MY-3B, (2S,3S)-1-acryloyl-3-(4-bromophenyl)-N-(quinolin-8-yl)azetidine-2-carboxamide] | 54 | 84 | 89 |  |
| CC#CC(=O)N1C[C@H](c2ccc(Br)cc2)[C@@H]1C(=O)Nc1cccc2cccnc12 [MY-45B, (2R,3S)-3-(4-bromophenyl)-1-(but-2-ynoyl)-N-(quinolin-8-yl)azetidine-2-carboxamide] |  |  |  | 67.00 |
| C=CC(=O)N1C[C@H](c2ccc(Br)cc2)[C@H]1C(=O)Nc1cccc2cccnc12 [MY-3A, (2S,3S)-1-acryloyl-3-(4-bromophenyl)-N-(quinolin-8-yl)azetidine-2-carboxamide] | 31 | 85 | 88.5 |  |

Other lines, results leading:

| % engagement KRTCAP3_C197 (KRTCAP3_C197) [%] | % engagement C3orf33_C275 (C3orf33_C275) [%] | % engagement CDKAL1_C556 (CDKAL1_C556) [%] | % engagement CDKAL1_556 (CDKAL1_C556) [%] | SMILES |
| --- | --- | --- | --- | --- |
| 69.5 | 83 | 91 | 79.33 | C=CC(=O)N1C[C@H](c2ccc(Br)cc2)[C@@H]1C(=O)Nc1cccc2cccnc12 [MY-1B, (2R,3S)-1-acryloyl-3-(4-bromophenyl)-N-(quinolin-8-yl)azetidine-2-carboxamide] |
| 61 | 83.5 | 59.5 |  | C=CC(=O)N1C[C@@H](c2ccc(Br)cc2)[C@H]1C(=O)Nc1cccc2cccnc12 [MY-1A, (2S,3R)-1-acryloyl-3-(4-bromophenyl)-N-(quinolin-8-yl)azetidine-2-carboxamide] |

Reference: patent US20250034216A1, “STEREOSELECTIVE COVALENT LIGANDS FOR ONCOGENIC AND IMMUNOLOGICAL PROTEINS” (The Scripps Research Institute, priority 2021, published 2025)
